Experimental data taken from US7897598B2, “Inhibitors of the anandamide transporter” (priority 1998, dated 2011).
Several values for one entry are separate records, joined by “and”; a condition that tells them apart may be missing. Equal entries are not always repeated. Where two headings read alike, the source gives them in different places.

What was measured:
[1] = tested on: anandamide transporter
[2] = tested on: anandamide transporter; experiment: Transport (translocation) of radioactively labeled substrates into astrocytoma cells; format: cell-based, human; conditions: radioactively labeled compound, FIG. 4 and FIG. 5
[3] = tested on: adenylyl cyclase activity; experiment: cAMP concentrations (adenylyl cyclase activity) in forskolin-stimulated cortical neurons; format: cell-based, rat
[4] = tested on: anandamide transporter; experiment: [3H]anandamide accumulation in cortical astrocytes in culture; format: cell-based, rat
[5] = tested on: anandamide transporter; experiment: [3H]anandamide transport assay, inhibition in astrocytoma cells; conditions: for IC50: read-out: IC50, [3H]anandamide accumulation
[6] = molecular target: CB1 receptors (Homo sapiens, UniProt P21554); experiment: Binding to CB1 receptors
Sequence of CB1 receptors (P21554 whole entry): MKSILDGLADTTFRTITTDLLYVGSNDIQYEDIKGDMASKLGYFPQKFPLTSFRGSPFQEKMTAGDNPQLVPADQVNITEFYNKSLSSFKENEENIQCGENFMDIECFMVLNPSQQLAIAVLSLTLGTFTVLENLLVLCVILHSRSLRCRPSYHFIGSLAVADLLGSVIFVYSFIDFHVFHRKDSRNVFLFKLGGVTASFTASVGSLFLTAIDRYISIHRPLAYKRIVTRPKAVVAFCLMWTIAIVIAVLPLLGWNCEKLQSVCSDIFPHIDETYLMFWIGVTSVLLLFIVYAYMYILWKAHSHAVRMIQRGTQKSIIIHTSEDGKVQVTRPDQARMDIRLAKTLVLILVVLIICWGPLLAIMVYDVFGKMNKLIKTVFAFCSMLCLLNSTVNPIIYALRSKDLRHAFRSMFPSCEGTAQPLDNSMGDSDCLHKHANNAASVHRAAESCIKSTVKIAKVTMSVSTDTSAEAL

[7] = tested on: male Swiss mice; conditions: mouse, in vivo
[8] = molecular target: T1, fatty acid amide hydrolase (FAAH) (Rattus norvegicus, UniProt P97612); experiment: FAAH activity in brain microsomes; format: biochemical
T1 construct: from tissue; host or cells: brain microsomes
T1 sequence (P97612 1-579): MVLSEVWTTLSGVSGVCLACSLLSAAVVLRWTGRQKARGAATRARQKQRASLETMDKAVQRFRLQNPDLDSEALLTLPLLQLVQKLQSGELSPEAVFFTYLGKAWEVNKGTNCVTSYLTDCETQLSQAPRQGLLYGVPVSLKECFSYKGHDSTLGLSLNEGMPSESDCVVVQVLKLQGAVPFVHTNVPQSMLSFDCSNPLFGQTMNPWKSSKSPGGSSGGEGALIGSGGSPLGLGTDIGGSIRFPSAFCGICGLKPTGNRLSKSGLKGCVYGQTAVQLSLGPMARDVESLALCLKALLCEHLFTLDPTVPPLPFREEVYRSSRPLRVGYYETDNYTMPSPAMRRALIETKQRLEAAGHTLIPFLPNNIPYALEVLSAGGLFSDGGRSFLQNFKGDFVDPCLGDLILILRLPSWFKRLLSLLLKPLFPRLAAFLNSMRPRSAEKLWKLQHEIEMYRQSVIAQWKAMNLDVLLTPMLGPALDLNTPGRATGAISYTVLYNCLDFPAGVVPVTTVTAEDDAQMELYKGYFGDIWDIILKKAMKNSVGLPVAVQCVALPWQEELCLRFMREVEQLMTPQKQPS

[9] = molecular target: rat cerebral membranes ([3H]WIN-55212-2 binding) (Rattus norvegicus, UniProt P20272); experiment: Binding of [3H]WIN-55212-2 to rat cerebral membranes
Sequence of rat cerebral membranes ([3H]WIN-55212-2 binding) (P20272 whole entry): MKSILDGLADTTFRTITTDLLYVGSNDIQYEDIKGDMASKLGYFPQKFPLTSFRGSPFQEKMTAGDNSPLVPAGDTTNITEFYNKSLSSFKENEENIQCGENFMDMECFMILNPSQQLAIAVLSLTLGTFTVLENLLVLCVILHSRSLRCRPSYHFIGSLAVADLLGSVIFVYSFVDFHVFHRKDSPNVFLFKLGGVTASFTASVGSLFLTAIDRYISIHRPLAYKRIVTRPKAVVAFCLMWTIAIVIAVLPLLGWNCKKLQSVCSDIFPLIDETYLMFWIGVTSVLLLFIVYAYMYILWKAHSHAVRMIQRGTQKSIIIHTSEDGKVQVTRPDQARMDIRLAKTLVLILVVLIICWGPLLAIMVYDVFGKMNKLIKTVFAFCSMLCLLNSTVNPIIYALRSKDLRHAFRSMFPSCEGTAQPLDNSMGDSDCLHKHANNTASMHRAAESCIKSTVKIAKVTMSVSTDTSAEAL

[10] = tested on: anandamide transporter; experiment: [3H]anandamide accumulation in neurons; format: cell-based, rat

CCCCCC=CCC=CCC=CCC=CCCCC(=O)NC(C)CO (centres unmarked) [drawing 12]
IC50 [1]: 37.7 ± 0.7 µM

cis-eicosadienoylethanolamide
transport into cells (substrate translocation, in words) [2]: transported very slowly

CCCCCC=CCC=CCC=CCC=CCCCC(=O)N1CCCC(O)C1 (centres unmarked)
IC50 [1]: 15 µM

CCCCCC=CCC=CCC=CCC=CCCCC(N)=O
IC50 [1]: 9 ± 2 µM

CCCCCCCC/C=C\CCCCCCCCCC(=O)NCCO
IC50 [1]: 14.1 ± 1.2 µM

CCCCCC=CCC=CCC=CCC=CCCCC(=O)OC(CO)CO
IC50 [1]: 18.5 ± 0.7 µM

CCCCCC=CCC=CCC=CCC=CCCCC(=O)N1CCC(O)CC1
IC50 [1]: 10 ± 0.2 µM

CCCCCC=CCC=CCC=CCC=CCCCC(=O)NCC
IC50 [1]: 48.5 ± 7.3 µM

CCCCCC=CCC=CCC=CCC=CCCCC(=O)N1CCOCC1
IC50 [1]: 25 µM

cis-eicosatrienoylethanolamide
transport into cells (substrate translocation, in words) [2]: transported very slowly

CCCCCCCC/C=C\CCCCCCCC(=O)NCCO [drawing 6]
IC50 [1]: 10.5 ± 1.2 µM

CCCCCC=CCC=CCC=CCC=CCCC(C)(C)C(=O)NCCO
IC50 [1]: 7.6 ± 1.2 µM

CCCCCCCC/C=C\CCCCCCCC(=O)NCCO [oleylethanolamide]
transport into cells (substrate translocation, in words) [2]: not transported at all

CCCCCC=CCC=CCC=CCC=CCCCC(=O)NC(C)CO (centres unmarked) [drawing 13]
IC50 [1]: 10.4 ± 1.2 µM

Cc1c(C(=O)c2cccc3ccccc23)c2cccc3c2n1[C@H](CN1CCOCC1)CO3 [WIN-55212-2, reference compound]
cAMP, % of forskolin alone [3]: 96.7±2.5% | effect on [3H]anandamide accumulation (in words) [4]: no effect

N[C@@H](CCC(=O)O)C(=O)O [glutamate, reference compound]
cAMP, % of forskolin alone [3]: 91.6±2%

CCCCC/C=C\C/C=C\C/C=C\CCCCCCC(=O)NCCO
IC50 [1]: 13 ± 3.6 µM

CCCCC/C=C\C/C=C\C/C=C\C/C=C\CCCC(=O)Nc1ccc(O)cc1 [AM404, N-(4-hydroxyphenyl)-arachidonamide]
competition with [3H]anandamide for transport / uptake inhibition (in words) [5]: the most potent competitor in our series | IC50 ([5]; human astrocytoma cells): 2.2 ± 0.2 µM | cAMP, % of forskolin alone [3]: 89.8±2.6% and 84.4±4.9% | decrease of anandamide threshold, factor [3]: 1.100 | effect on cAMP concentrations when applied alone [3]: did not reduce cAMP concentrations | enhancement of the anandamide response on cAMP (in words) [3]: almost maximal effect | increase of anandamide potency, factor [3]: 10 | Ki [6]: 1.8 µM | antinociceptive effect alone (in words) [7]: no antinociceptive effect | effect on anandamide-induced analgesia (in words) [7]: significantly enhanced and prolonged

CCCCCC=CCC=CCC=CCC=CCCCC(=O)N1CCC(O)C1 (centres unmarked)
IC50 [1]: 15.3 ± 3 µM

CCCCCC=CCC=CCC=CCC=CCCC(C)(C)C(=O)NCC(C)O (centres unmarked) [drawing 22]
IC50 [1]: 16.5 ± 1 µM

CCCCCCCCCCCCCCCC(=O)NCCO [palmitoyl ethanolamide, reference compound]
effect on [3H]anandamide accumulation (in words) ([4]; cortical astrocytes, WIN-55212-2 1 μM, SR-141716-A 10 μM): not | transport into cells (substrate translocation, in words) [2]: not transported to any significant extent

CCCCCC=CCC=CCC=CCC=CCCC(C)(C)C(=O)NCC(C)O (centres unmarked) [drawing 21]
IC50 [1]: 33.2 ± 4.2 µM

CCCCC[C@H](O)/C=C/[C@H]1[C@H](O)CC(=O)[C@@H]1C/C=C\CCCC(=O)O [PGE2, prostaglandin E2]
effect on [3H]anandamide accumulation (in words) [4]: inability

Cc1c(C2(c3cc(Br)c(O)c(Br)c3C)OS(=O)(=O)c3ccccc32)cc(Br)c(O)c1Br [bromcresol green]
effect on FAAH activity [8]: no significant effect | cAMP, % of forskolin alone ([3]; 10 μM inhibitor in the presence of WIN-55212-2 1 nM, n=3): 92.9±2.3% | enhancement of the anandamide response on cAMP (in words) ([3]; anandamide 0.3 μM, inhibitors 10 μM, SR-141716-A 1 μM): less effective | cAMP, % of forskolin alone ([3]; inhibitor in the presence of glutamate 3 μM, n=3): 84.4±3% | mode of inhibition of [3H]anandamide accumulation [4]: noncompetitively | IC50 ([4]; astrocytes): 12 µM | effect on binding of [3H]WIN-55212-2 [9]: no significant effect | IC50 [10]: 4 µM

CCCCC/C=C\C/C=C\C/C=C\C/C=C\CCCC(=O)Nc1cccc(O)c1 [AM403, N-(3-hydroxyphenyl)-arachidonamide]
times less effective than N-(4-hydroxyphenyl)-arachidonamide ([5]; human astrocytoma cells, ratio of IC50): 10 times | IC50 ([5]; human astrocytoma cells): 21.3 ± 3.4 µM | cAMP, % of forskolin alone [3]: 92.4±2.3% | enhancement of the anandamide response on cAMP (in words) [3]: less effective

CCCCC/C=C\C/C=C\C/C=C\C/C=C\CCCC(N)=O [arachidonamide]
competition with [3H]anandamide for transport / uptake inhibition (in words) [5]: compete with anandamide for uptake | transport into cells (substrate translocation, in words) [2]: effectively transported into cells

cis-eicosaenoylethanoladide
transport into cells (substrate translocation, in words) [2]: not transported at all

CCCCC/C=C\C/C=C\C/C=C\C/C=C\CCCC(=O)NCCO [anandamide, Arachidonyl ethanolamide]
IC50 [1]: 15.1 ± 3 µM | latency to jump [7]: 30.7 ± 0.8 s | time after injection at which analgesia disappeared [7]: 60 min

CCCCCC=CCC=CCC=CCC=CCCCC(=O)OCC(O)CO (centres unmarked)
IC50 [1]: 48.5 ± 8.1 µM
